The results in this text go back to patent publication US4255421A, “Fortimicin aminoglycosides, process for production thereof, and use thereof” (Kowa Company, Ltd., priority 1978, dated 1981).

What all share (format): cell-based
In assay [1] the test system is Bacillus anthracis.
In assay [2] the test system is Pseudomonas aeruginosa TI-13. Briefly: antibacterial spectra (Table 1).
Assay [3] deals with Pseudomonas aeruginosa No. 315. Briefly: antibacterial spectra (Table 1). To be noted: Pseudomonas aeruginosa No. 315 (resistant to gentamicin, tobramycin and amikacin).
In assay [4] the test system is Pseudomonas aeruginosa Shibata. Briefly: antibacterial spectra (Table 1).
Assay [5] concerns Pseudomonas aeruginosa No. 12. Put plainly: antibacterial spectra (Table 1).
For assay [6], the system named is Escherichia coli NIHJ. Briefly: antibacterial spectra (Table 1).
The subject of assay [7] is Pseudomonas aeruginosa K-11. Put plainly: antibacterial spectra (Table 1). To be noted: Pseudomonas aeruginosa K-11 (resistant to kanamycin).
Assay [8] has as its system Proteus inconstans. Briefly: antibacterial spectra (Table 1).
Assay [9] deals with Bacillus cereus. Put plainly: antibacterial spectra (Table 1).
Assay [10] deals with Proteus vulgaris OX-19. Briefly: antibacterial spectra (Table 1).
Assay [11] deals with Streptococcus faecalis. Put plainly: antibacterial spectra (Table 1).
In assay [12] the test system is Serratia marcescens. Put plainly: antibacterial spectra (Table 1).
Assay [13] relates to Bacillus subtilis ATCC 6633. Briefly: antibacterial spectra (Table 1).
Assay [14] relates to Pseudomonas aeruginosa A3. Put plainly: antibacterial spectra (Table 1).
For assay [15], the system named is Klebsiella pneumoniae PCI 602. Briefly: antibacterial spectra (Table 1).
Assay [16] has as its system Staphylococcus aureus 209P. Briefly: antibacterial spectra (Table 1).
Assay [17] concerns Pseudomonas aeruginosa No. 157. Briefly: antibacterial spectra (Table 1).
Assay [18] relates to Escherichia coli ML1410. Put plainly: antibacterial spectra (Table 1).

Consider 4-N-glycyl KA-6606VI, for which the antibacterial spectra is 0.20 in assay [1]; 3.13 in [2]; 12.5 in assay [3]; 6.25 in [4]; 0.78 in [5]; 1.56 in [6]. The antibacterial spectra in assay [7] is listed as 6.25; in [8], 1.56; in assay [9], 0.78; in assay [10], 1.56; in assay [11], 25; in [12] it was 0.78. The antibacterial spectra in assay [13] is reported as 0.20; in assay [14], 6.25; in assay [15], 0.78; in assay [16] it was 0.39; in assay [17], 3.13; in [18] it was 3.13.
